Results: ChEMBL document CHEMBL5729174, “Substituted benzofuran, benzopyrrole, benzothiophene, and structurally related complement inhibitors” (2022)

target: Complement factor D (Homo sapiens, UniProt P00746); test: Factor D Esterolytic Assay: An established esterolytic assay for the measurement of Factor D activity and inhibition of Factor D activity was used (Kam, C. M.; McRae, B. J.; Harper, J. W.; Niemann, M. A.; Volanakis, J. E.; Powers, J. C. Human complement proteins D, C2, and B Active site mapping with peptide thioester substrates. J Biol. Chem. 1987, 262, 3444-3451). For this assay Z-Lys-SBzl, 1.29 mM (Kim, S.; Narayana, S. V. L; Volanakis, J. E. Mutational analysis of the substrate binding site of human complement Factor D. Biochemistry. 1994, 33, 14393-14399.) was used as the substrate for Factor D ([…]). Hydrolysis of this compound by Factor D liberated a free sulfhydryl group which is then reacted with 5,5′-dithiobis(2nitrobenzoic acid) producing an intense yellow color (Habeeb, A. F. S. A. Reaction of protein sulfhydryl groups with Ellman's Reagent. Methods in Enzymol. 1976, 25, 457-464). The assays were performed in 96 well microtiter plates and rates of hydrolysis were monitored at 405 nm on a Biotek Synergy H1 plate reader. Hydrolysis rates were reported as change in mOD/min. The assay was conducted in 100 mM HEPES, 500 mM NaCl, pH 7.5 containing 10% DMSO in a final volume of 50 μL per well.
Sequence (P00746 whole entry): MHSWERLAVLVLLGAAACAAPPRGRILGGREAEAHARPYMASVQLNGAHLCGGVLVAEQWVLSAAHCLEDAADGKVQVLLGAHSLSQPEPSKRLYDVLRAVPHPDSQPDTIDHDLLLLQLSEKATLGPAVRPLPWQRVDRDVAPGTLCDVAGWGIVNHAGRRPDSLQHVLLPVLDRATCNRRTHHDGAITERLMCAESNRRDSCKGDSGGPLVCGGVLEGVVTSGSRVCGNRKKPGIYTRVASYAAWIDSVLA

IC50, < 1000 nM:
NCc1nccc(-c2cc(COc3ccccc3CC(=O)O)cc3c2ccn3S(=O)(=O)C2CC2)c1F
NCc1cccc(-c2cc(COc3ccc(F)cc3CC(=O)O)cc3ccoc23)c1F
CS(=O)(=O)n1ccc2c(-c3ccnc(CN)c3F)cc(COc3ccccc3CC(=O)O)cc21
NCc1cccc(-c2cc(COc3ccccc3CC(=O)O)cc3cc[nH]c23)c1
